Drawing on ChEMBL document CHEMBL1156625, “NMR screening for lead compounds using tryptophan-mutated proteins” (J Med Chem, 2008), this text covers Kd and IC50 for 1 molecule.

In assay [1] the target is Cyclin-dependent kinase 2 (Homo sapiens, UniProt P24941). Nature of the assay: Binding affinity to CDK2.
For assay [2], the target named is Epidermal growth factor receptor (Homo sapiens, UniProt P00533). The experiment in a line: Inhibition of EGFR.
A short description of assay [3]: Inhibition of PKC.
The nature of assay [4]: Inhibition of PKA.

Molecules are shown by their SMILES.

Chain of Epidermal growth factor receptor (P00533 whole entry): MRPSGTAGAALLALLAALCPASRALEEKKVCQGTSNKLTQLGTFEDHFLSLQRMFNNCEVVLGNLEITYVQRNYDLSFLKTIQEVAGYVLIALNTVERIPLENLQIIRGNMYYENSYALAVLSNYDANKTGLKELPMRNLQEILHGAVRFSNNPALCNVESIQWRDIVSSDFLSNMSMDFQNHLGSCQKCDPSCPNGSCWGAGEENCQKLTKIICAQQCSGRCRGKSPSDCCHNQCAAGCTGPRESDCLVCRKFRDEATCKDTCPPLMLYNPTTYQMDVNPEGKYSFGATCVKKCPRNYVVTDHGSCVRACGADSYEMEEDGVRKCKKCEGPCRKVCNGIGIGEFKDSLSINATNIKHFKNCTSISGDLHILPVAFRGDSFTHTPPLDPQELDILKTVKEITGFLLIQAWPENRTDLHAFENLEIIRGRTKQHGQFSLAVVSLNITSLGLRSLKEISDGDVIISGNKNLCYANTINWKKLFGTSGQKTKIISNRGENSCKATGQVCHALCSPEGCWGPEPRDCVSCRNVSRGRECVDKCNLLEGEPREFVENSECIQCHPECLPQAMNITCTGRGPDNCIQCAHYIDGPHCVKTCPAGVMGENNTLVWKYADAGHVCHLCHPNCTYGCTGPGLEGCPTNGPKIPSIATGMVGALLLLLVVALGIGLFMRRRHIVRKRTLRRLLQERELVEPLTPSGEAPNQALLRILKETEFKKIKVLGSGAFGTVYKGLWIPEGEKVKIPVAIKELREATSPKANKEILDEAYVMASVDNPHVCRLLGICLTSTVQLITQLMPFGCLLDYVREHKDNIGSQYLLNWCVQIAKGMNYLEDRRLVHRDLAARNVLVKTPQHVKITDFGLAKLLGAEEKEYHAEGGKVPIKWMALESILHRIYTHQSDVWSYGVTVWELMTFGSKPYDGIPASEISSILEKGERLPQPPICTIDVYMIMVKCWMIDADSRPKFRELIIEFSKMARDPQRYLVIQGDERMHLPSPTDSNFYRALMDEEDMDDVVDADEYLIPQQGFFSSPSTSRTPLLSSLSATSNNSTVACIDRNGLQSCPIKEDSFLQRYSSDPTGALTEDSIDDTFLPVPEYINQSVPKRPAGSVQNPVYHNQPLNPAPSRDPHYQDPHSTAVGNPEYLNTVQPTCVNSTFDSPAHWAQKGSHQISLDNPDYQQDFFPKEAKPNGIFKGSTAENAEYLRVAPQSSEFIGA

As usually defined, the Kd is the equilibrium constant for the complex coming apart. Broadly, the IC50 is the concentration needed to halve the response being measured. Higher therefore signals lower potency. In turn, `O=C(/C=C/c1ccc(O)c(O)c1)c1ccc(O)cc1O` [BUTEIN] displayed an equilibrium dissociation constant (Kd) in assay [1] of 100 µM. The values for the 50% inhibitory concentration (IC50) in assay [2], in assay [3] and in assay [4] were 16 µM, over 500 µM and over 500 µM, respectively.
